Assays:
main organs = conditions: xenon exposure (Natale et al 1998); cited from earlier work
erythropoietin (EPO) = experiment: EPO protein expression in neonatal rat brain (western blot); assay type: in vivo, Sprague Dawley rats; conditions: neonatal rat brains, 75% xenon 2 h, harvested 0-24 h after
Protocol: (§1) Sprague Dawley, 7 day neonatal rats were used. All procedures were approved by the Home Office.
The neonatal rats were exposed to 75% xenon for two hours. The gas was administered by gas inhalation. The brains of said rats were then harvested as described below between 0-24 hours after exposure to the xenon gas.
The tissues were homogenised and western blots of neonatal rat brain samples were carried out as described in Example 1.
The primary antibodies were anti-α-tubulin antibody, and monoclonal mouse anti-erythropoietin antibody.

brain = experiment: Cortical infarction in neonatal rat brain, xenon and cooling; assay type: in vivo, Sprague Dawley rats; design: Total area of infraction: unit not given here
Protocol: as §1
The neonatal rats were exposed to: • (i) 20% xenon alone for 2 hours; • (ii) 35° C. hypothermia for 90 minutes; or • (iii) Hypothermia (35° C.) for 90 minutes before, 1 hour later, 20% xenon for 2 hours.
The gas was administered by gas inhalation.
The brains of said rats were then harvested at a set time after exposure to the xenon gas. A total of 11 rats were examined for each treatment group.
The brains were assessed for cortical infarction in the affected hemisphere.
The “intervention” rats under went an ischaemic injury to the brain.

HIF-1α = HIF-1α expression in neonatal rat brain after xenon (immunohistochemistry and western blot); assay type: in vivo, Sprague Dawley rats
Protocol: Studies were performed on Sprague Dawley, 7 day old rats. All procedures were approved by the Home Office.
The rats were exposed to 75% xenon for two hours. The xenon gas was administered to the rats by inhalation. The brains of said rats were then harvested, as described below, between 0-24 hours after exposure to the xenon gas.
Paraffin sections (4 μm) were dewaxed in xylene, rehydrated in a series of ethanol washes, and placed in distilled water before staining procedures. Slides were coated with 3-aminopropyl-tri-ethoxysylane.
For detection of HIF isoforms, monoclonal mouse anti-human HIF-1α antibody (67; Novus Biologicals, Littleton, Colo.) and polyclonal rabbit anti-mouse HIF-2α antibodies (PM8 and PM9, obtained from two different rabbits immunised with a peptide containing amino acids 337 to 439 of mouse HIF-2) were used. PM8 and PM9 were provided by Prof. P H Maxwell, Renal Section, Imperial College London, Hammersmith Campus, Du Cane Road, London, W12 ONN. Specific staining of each HIF-isoform was confirmed in immunoblots by using in vitro transcribed and translated mouse HIF-1 and HIF-2 (TnT T7; Promega, Madison, Wis.) and homogenates of rat endothelial cells.
For immunohistochemical analyses, antibody 67 was used at a dilution of 1:6000 and antibodies PM8 and PM9 were used at dilutions of 1:3000.
Detection of bound antibodies was performed by using biotinylated secondary anti-mouse or anti-rabbit antibodies and a catalysed signal amplification system (Dako, Hamburg, Germany) based on the streptavidin-biotin-peroxidase reaction, according to the instructions provided by the manufacturer. Antigen retrieval was performed for 90 seconds in preheated Dako target retrieval solution, using a pressure cooker. All incubations were performed in a humidified chamber. Between incubations, specimens were washed two to four times in buffer (50 mM Tris-HCl, 300 mM NaCl, 0.1% Tween-20, pH 7.6). […]

NMDA receptor = conditions: 80% xenon, cultured hippocampal neurons; cited from earlier work
HIF-1α gene = experiment: HIF-1α RNA expression in adult mice brains (RT-PCR); assay type: in vivo, C57BL/6J mice; conditions: 75% xenon and 25% oxygen 2 h, harvested 0-72 h after
Protocol: Studies were performed on 8- to 12-wk-old C57BL/6J mice (Jackson Labs, Bar Harbor, Me.) that were fed a standard laboratory diet. All procedures were approved by the Home Office.
The mice were exposed to 75% xenon and 25% oxygen for two hours. The xenon gas was administered to the mice by inhalation. The brains of said adult mice were then harvested as described below between 0-72 hours after exposure to the xenon gas.
Total RNA was extracted as described in Example 4. In addition RT-PCR was carried out as described in Example 4. The primers used for the PCR amplifications were: […]

[Xe] [xenon]
toxic effects on main organs (main organs): does not induce significant toxic effects | expression of EPO protein (erythropoietin (EPO)): time-dependent increase | Total area of infraction (brain; Control rats, 20% xenon alone column): 88.3 (±4.1) | Total area of infraction (brain; Control rats, combination column): 92.7 (±6.7) | Total area of infraction (brain; Intervention rats (ischaemic injury), 20% xenon alone for 2 hours): 85.3 (±8.9) | Total area of infraction (brain; Intervention rats (ischaemic injury), combination: hypothermia 35° C. 90 min, 1 hour later 20% xenon 2 hours): 74.1 (±7.8) | interaction of xenon and cooling on area of infraction (brain; hypothermia followed by xenon, administered asynchronously): synergy | expression of HIF-1α and HIF-1β in pyramidal cells in the hippocampus (HIF-1α; 6 hours after exposure to 75% xenon, immunohistochemistry): induces expression | HIF-1α positive cells in cortex (HIF-1α; 6 hrs after 2 h exposure to 75% xenon, immunohistochemistry): clearly detected | HIF-1α expression in the brain (HIF-1α; 7 day old rats, 75% xenon 2 h, brains harvested 0-24 h after, western blot): time-dependent increase | reduction of NMDA-activated currents (NMDA receptor): up to 60% | transcription of the HIF-1α gene (HIF-1α gene): does not modulate

Source: US20090252814A1, “USE OF XENON FOR ORGAN PROTECTION” (priority 2005, published 2009)
